Test results reported in patent US20260258009A1, “3-[(BENZO[D][1,3]DIOXOLANE-4-YL)OXY]PROPYLAMINE HYDROCHLORIDE, OPTICAL ISOMER AND CRYSTAL THEREOF, AND PREPARATION METHOD THEREFOR” (priority 2022, published 2026).
Counter-ions that a name gives are not always drawn. Like-named read-outs stand apart in the source and are kept apart here.

Columns and labels:
[1] = Solubility experiment (HPLC, external standard method); type: physicochemical
Protocol: The concentrated solution was placed in a 20° C. water bath thermostatic oscillator for overnight oscillation (supersaturation) and filtered. The filtrate was taken, 1 mL of which was precisely measured and placed in a 100 mL volumetric flask. A diluent (water) was added, the mixture was diluted to volume and mixed well, 1 mL of which was precisely measured and placed in a 10 mL volumetric flask. A diluent was added, the mixture was diluted to volume and mixed well as a test sample solution.
Control substance solution: A proper amount of 5 samples were respectively taken, precisely measured, dissolved in a proper amount of a diluent by ultrasonication, and diluted to give a solution containing about 0.1 mg of the sample per 1 mL. Two duplicate samples were prepared for each batch.
• (1) Preparation of buffer: About 2.6428 g ammonium sulfate was weighed and dissolved in 1000 mL of water. 2 mL of triethylamine was added, and the pH value was adjusted to 4.0 with dilute sulfuric acid. • (2) Preparation of mobile phase: Methanol-0.02 mol/L ammonium sulfate solution (2 mL triethylamine was added per 1000 mL, and the pH value was adjusted to 4.0 with dilute sulfuric acid) (45:55). 1000 mL was prepared, mixed well, filtered, and used after ultrasonic treatment.
Detection wavelength: 230 nm; flow rate: 1.0 mL/min; column temperature: 35° C.; sample injection volume: 20 μL; chromatographic column: Agilent Eclipse XDB-C18 chromatographic column (4.6×150 mm, 5 μm); mobile phase: methanol-0.02 mol/L ammonium sulfate solution (2 mL triethylamine was added per 1000 mL, and the pH value was adjusted to 4.0 with dilute sulfuric acid) (45:55).
20 μL of each solution was precisely measured, and injected separately into a liquid chromatograph. The chromatograms were recorded, and the solubility of the compounds was determined according to an external standard method.

[2] = Experiments of influencing factors (crystal form stability, XRPD); type: physicochemical; conditions: hydrochloride; for Crystal form after High temperature of 60° C. / Crystal form after Illumination of 5000 1x / Crystal form after High humidity of 92.5%: XRPD; for Crystal form stability (experimental conclusion): high temperature, high humidity, illumination, condition stated in the value; for Crystal form after Illumination of 5000 1x: photostability tester 5000 lx; for Crystal form after High humidity of 92.5%: relative humidity 92.5%
Protocol: High temperature experiment: About 1 g of the A, B, and C crystal forms were respectively weighed, placed in a clean watch glass, and placed at 60° C. for 10 days. The samples were taken on day 0, day 5, day 10, and day 30 for XRPD analysis.
High humidity experiment: About 1 g of the A, B, and C crystal form samples were respectively weighed, placed in a clean watch glass, and placed at a relative humidity of 92.5% for 10 days. The samples were taken on day 0, day 5, day 10, and day 30 for XRPD analysis.
Illumination experiment: About 1 g of the A, B, and C crystal form samples were respectively weighed, placed in a clean watch glass, laid flat, and placed in a photostability tester (the illumination was 5000 lx) for 10 days. The samples were taken on day 0, day 5, day 10, and day 30 for XRPD analysis.

[3] = Hygroscopicity test; type: physicochemical; conditions: 25° C.±1° C., relative humidity 80%±2%, 24 h; for Hygroscopicity: hydrochloride
Protocol: 17.1. A dried glass weighing bottle with a plug (outer diameter: 50 mm; height: 15 mm) was taken and placed in a suitable thermostatic dryer (with saturated ammonium chloride or ammonium sulfate solution placed in the lower part) at 25° C.±1° C. or an artificial climate box (with a set temperature at 25° C.±1° C. and relative humidity at 80%±2%) on the day before the test, and the weight (m1) was precisely measured. 17.2. An appropriate amount of the A crystal form of the compound of formula (I) was taken and spread in the above weighing bottle, with the thickness of the test sample being about 1 mm in general, and the weight (m2) was precisely measured. […] The weighing bottle was opened and placed in the above conditions at constant temperature and humidity for 24 h together with the cap. 17.4. The weighing bottle was capped, and the weight (m3) was precisely measured. [formula]

[4] = both, beagle, dog, in vivo
Protocol: (§1) Each group had six beagle dogs, half male and half female.
(§2) Preparation of solutions: • 1) Intravenous injection administration: 0.9% Normal saline was used as a vehicle. • 2) Oral administration: According to the dose of 10 mg/kg (based on base), a corresponding mass of the drug was weighed according to the actual weight of the animal, and then filled into a capsule to be administered to the animal.

[5] = Pharmacokinetic assay in beagle dogs; conditions: both, dog, in vivo, mean; for half-life: t1/2, beagle dogs
Protocol: as §1, §2

[6] = tested on: ICR mice; assay: Mouse forced swimming test; type: in vivo; conditions: for Immobility time: mice, 1 h after administration, mean±SD, n=12
Protocol: SPF grade ICR mice were taken. The animals were grouped by weight, 12 animals per group, and the animals were allowed to acclimate for at least 3 days before behavioural test.
The behavioural test was started 1 h after intragastric administration. The mice were placed in a transparent glass cylinder with water (water depth: 15 cm, water temperature: 23-25° C.) and video recorded for 6 min (the background was an LED light panel). At the end of the time, the mice were removed from the water and the next batch of mice was subjected to the behavioural test. Water was changed after every 3 batches of tests. After the test, the video of the behavioural test was derived and the cumulative immobility time of the mice 4 min after the 6 min forced swimming period was analyzed using the Forced Swim Scant 2.0 software.
The test results are expressed as mean±SD. Comparisons between each group and the vehicle group were conducted using the t-test. The differences were considered statistically significant when. P<0.05.

[7] = 5 days, listed as A crystal form
[8] = 10 days, listed as A crystal form
[9] = 30 days, listed as A crystal form
[10] = po, 1 mg/kg, beagle dogs, oral (capsule)

SMILES: CNCC[C@@H](Oc1cccc2c1OCO2)c1ccccc1.Cl [Crystal form A of compound of formula (I)] [(R)—N-methyl-3-phenyl-3-[(benzo[d][1,3]dioxolan-4-yl)oxy]propylamine hydrochloride]
- solubility [1]: 35550 µg/mL
- Crystal form after High temperature of 60° C. [2, 7]: Crystal form A
- Crystal form after High temperature of 60° C. [2, 8]: Crystal form A
- Crystal form after High temperature of 60° C. [2, 9]: Crystal form A
- Crystal form stability (experimental conclusion) ([2]; listed as A crystal form): can keep stable under high temperature, high humidity, and illumination
- Crystal form after Illumination of 5000 1x [2, 7]: Crystal form A
- Crystal form after Illumination of 5000 1x [2, 8]: Crystal form A
- Crystal form after Illumination of 5000 1x [2, 9]: Crystal form A
- Crystal form after High humidity of 92.5% [2, 7]: Crystal form A
- Crystal form after High humidity of 92.5% [2, 8]: Crystal form A
- Crystal form after High humidity of 92.5% [2, 9]: Crystal form A
- Weight gain [3]: 0.01%
- Hygroscopicity ([3]; listed as A crystal form of the compound of formula (I)): no or almost no hygroscopicity
- Hygroscopicity ([3]; listed as A crystal form): no or almost no hygroscopicity
- AUC(0-t) ([4]; iv, 0.3 mg/kg): 123.7 ng·h/mL
- AUC(0-∞) ([4]; iv, 0.3 mg/kg): 124.5 ng·h/mL
- Cmax ([4]; iv, 0.3 mg/kg): 83.6 ng/mL
- Tmax ([4]; iv, 0.3 mg/kg): 0.08 h
- t1/2 ([4]; iv, 0.3 mg/kg): 2.08 h
- bioavailability ([4]; po): 28.2%
- AUC(0-t) ([4]; po, 1 mg/kg): 116.3 ng·h/mL
- AUC(0-∞) ([4]; po, 1 mg/kg): 117.1 ng·h/mL
- Cmax ([4]; po, 1 mg/kg): 35.3 ng/mL
- Tmax ([4]; po, 1 mg/kg): 0.92 h
- t1/2 ([4]; po, 1 mg/kg): 2.48 h

SMILES: CNCCC(Oc1cccc2c1OCO2)c1ccccc1.O=C(O)C(=O)O (centres unmarked) [N-methyl-3-phenyl-3-[(benzo[d][1,3]dioxolan-4-yl)oxy]propylamine oxalate]
- AUC(0-t) ([5]; iv, 0.3 mg/kg, beagle dogs): 109 ng·h/mL
- AUC(0-inf) ([5]; iv, 0.3 mg/kg, beagle dogs): 110 ng·h/mL
- Cmax ([5]; iv, 0.3 mg/kg, beagle dogs): 71.6 ng/mL
- Tmax ([5]; iv, 0.3 mg/kg, beagle dogs): 0.08 h
- half-life ([5]; iv, 0.3 mg/kg): 1.93 h
- AUC(0-t) [5, 10]: 78.7 ng·h/mL
- AUC(0-inf) [5, 10]: 79.9 ng·h/mL
- bioavailability ([5]; po, 1 mg/kg, Bioavailability, beagle dogs, oral 1 mg/kg vs intravenous 0.3 mg/kg): 21.8%
- Cmax [5, 10]: 23.7 ng/mL
- Tmax [5, 10]: 1.43 h
- half-life ([5]; po, 1 mg/kg, oral (capsule)): 1.98 h
- solubility ([1]; water, 20 °C, water, thermodynamic from solid, Water, 20° C., overnight oscillation, read-out: Solubility): 6900 µg/mL

SMILES: CNCC[C@@H](Oc1cccc2c1OCO2)c1ccccc1.Cl [B crystal form, (R)—N-methyl-3-phenyl-3-[(benzo[d][1,3]dioxolan-4-yl)oxy]propylamine hydrochloride]
- Crystal form after High temperature of 60° C. ([2]; 5 days): Crystal form A + B
- Crystal form after High temperature of 60° C. ([2]; 10 days): Crystal form A + B
- Crystal form after High temperature of 60° C. ([2]; 30 days): Crystal form A + B
- Crystal form stability (experimental conclusion) [2]: converted into a mixed crystal of the crystal forms A and B under the high temperature and high humidity environment
- Crystal form after Illumination of 5000 1x ([2]; 5 days): Crystal form B
- Crystal form after Illumination of 5000 1x ([2]; 10 days): Crystal form B
- Crystal form after Illumination of 5000 1x ([2]; 30 days): Crystal form B
- Crystal form after High humidity of 92.5% ([2]; 5 days): Crystal form A + B
- Crystal form after High humidity of 92.5% ([2]; 10 days): Crystal form A + B
- Crystal form after High humidity of 92.5% ([2]; 30 days): Crystal form A + B

SMILES: CNCC[C@H](Oc1cccc2ccccc12)c1cccs1 [Duloxetine hydrochloride, reference compound]
- ED50 ([6]; Mus musculus, po, read-out: ED50 (median effective dose, FST-ED50)): 6.93 mg/kg
- Immobility time ([6]; intragastric, 1.25 mg/kg): 135.1 ± 49.2 s
- Immobility time ([6]; intragastric, 2.5 mg/kg): 154.9 ± 76.0 s
- Immobility time ([6]; intragastric, 5 mg/kg): 104.9 ± 51.5 s
- Immobility time ([6]; intragastric, 20 mg/kg): 29.9 ± 45.4 s
- Immobility time ([6]; intragastric, 40 mg/kg): 10.6 ± 17.3 s
- minimum effective dose (MED) ([6]; mouse forced swimming, intragastric): 5 mg/kg

SMILES: CNCC[C@@H](Oc1cccc2c1OCO2)c1ccccc1.Cl [C crystal form, (R)—N-methyl-3-phenyl-3-[(benzo[d][1,3]dioxolan-4-yl)oxy]propylamine hydrochloride]
- Crystal form after High temperature of 60° C. ([2]; 5 days): Crystal form C
- Crystal form after High temperature of 60° C. ([2]; 10 days): Crystal form C
- Crystal form after High temperature of 60° C. ([2]; 30 days): Crystal form C
- Crystal form stability (experimental conclusion) [2]: converted into the A crystal form under the high humidity environment
- Crystal form after Illumination of 5000 1x ([2]; 5 days): Crystal form C
- Crystal form after Illumination of 5000 1x ([2]; 10 days): Crystal form C
- Crystal form after Illumination of 5000 1x ([2]; 30 days): Crystal form C
- Crystal form after High humidity of 92.5% ([2]; 5 days): Crystal form A
- Crystal form after High humidity of 92.5% ([2]; 10 days): Crystal form A
- Crystal form after High humidity of 92.5% ([2]; 30 days): Crystal form A

SMILES: CNCC[C@@H](Oc1cccc2c1OCO2)c1ccccc1.O=C(O)C(=O)O [(R)—N-methyl-3-phenyl-3-[(benzo[d][1,3]dioxolan-4-yl)oxy]propylamine oxalate, reference compound]
- solubility ([1]; thermodynamic from solid, Water, 20° C., overnight oscillation, read-out: Solubility): 5100 µg/mL
